Measurements as given in article PMC4361473, “A New System for Profiling Drug-Induced Calcium Signal Perturbation in Human Embryonic Stem Cell–Derived Cardiomyocytes” (Journal of Biomolecular Screening, 2015).

Experiments:
[1] = parameters: method as in DrugBank (www.drugbank.ca); conditions: from drug-protein binding values; ref DrugBank (www.drugbank.ca); cited from earlier work
[2] = categories assigned by Redfern and colleagues; cited from earlier work
[3] = maximal effective therapeutic plasma concentration; ref Redfern et al. (2003) Cardiovasc. Res. 58:32-45; cited from earlier work
Cytiva hSCCMs [4] = assay: Whole-cell current-clamp recording of spontaneous action potentials (APD90); format: cell-based, human; conditions: drug at EC20 concentration, 3 min; Fridericia-corrected; blebbistatin-immobilized cells
Protocol: Cells in 35-mm glass-bottomed culture dishes containing a superfusion insert (AutoMate PCP-1; Digitimer Ltd., Welwyn Garden City, UK) were mounted on the stage of an inverted microscope (CKX-41; Olympus, Tokyo, Japan) and were superfused with normal Tyrode (NT) solution (containing [in mM] NaCl, KCl, MgCl2 [1], CaCl2 [2], HEPES [10], glucose; pH 7.4 with NaOH) or NT-containing drugs maintained at 37 °C using a heated jacket.
Cells were whole-cell clamped with 3- to 4-MΩ patches and an intrapipette solution (containing in [mM] KCl, MgCl2 [1.75], CaCl2 [5.37], EGTA [10], HEPES [10], and Na2ATP [4]; pH 7.2 with KOH) in current-clamp (IC) mode using a CV-7B headstage and MultiClamp 700B amplifier controlled by MultiClamp software (Molecular Devices, Sunnyvale, CA). Data were digitized and acquired using a Digidata 1322a card and pClamp software, respectively (Molecular Devices). Action potentials were sampled at a rate of 20 kHz and low pass (Bessel) filtered at 10 kHz.
Spontaneous cell contracture was terminated using blebbistatin (5 µM, 10 min), an agent that inhibits myofilament shortening and thereby negates patch-clamp recording instability but preserves normal Ca^2+ cycling.[20] […] Action potential (AP) recordings from blebbistatin-immobilized cells were taken under control (no-drug) conditions (1 min) and following the switch to drug-containing NT. APD90, corrected for AP cycle length using Fridericia’s method (APD90(corr) = APD90/cycle length^[…]), was calculated from five consecutive APs following a 3-min exposure of the cells to drug.
Figure 4. Investigating the effect of cardiovascular-active drugs on Cytiva APD90. (A) Cells were exposed to drugs at EC20 concentrations for 3 min (Suppl. Table S2). APD90 values were corrected for beat period using Fridericia’s algorithm. Data points represent individual paired experiments (n = 6). Representative control (gray) and drug-treated (black) action potential traces are shown. (B) APD90 plotted as the percentage change relative to the paired control value (no drug). *p < 0.05. **p < 0.01.

[5] = Effective therapeutic plasma concentration (ETPC, ETPCunbound); format: in vivo, human
Excerpt: There is also the issue regarding the relevance of drug potency determined in vitro to clinical dosing in humans. Guo and colleagues[25],[27] used an impedance-derived index of arrhythmic beating in hSCCMs to derive a predicted proarrhythmic score (PPS) that took into account the therapeutically relevant total concentration of drug in human plasma (defined as Ceff). More recently, Clements and Thomas[13] used a similar approach to generate a predictive risk score (PRS) based on their measurement of field potential duration (FPD) in Cytiva.
Supplementary Table 1. Calculating the free plasma concentration of […]
described by Redfern et al. (Redfern et al. (2003) Cardiovasc. Res. 58:32-45) was used to calculate the levels of free drug (ETPCunbound). ETPC for nadolol and valdecoxib were from Krukemyer et al. (Pharm. Res. (1990) 9:953-956) and Yuan et al. (Drug Metab. Disp. (2002) 30:1013-1021), respectively. The values for drug-protein binding were obtained from DrugBank (www.drugbank.ca).

Cytiva hSCCMs [6] = assay: SALVO profiling of drug-evoked Ca2+ signal perturbation (fluo-4 confocal imaging); conditions: for EC20 AHI: 20% change from control in amplitude heterogeneity index; for EC20 AHI / EC20 Synch / EC20 ITN / EC20 THI / EC20 Rate: regression of Figure 3 data; for EC20 Synch: 20% change from control in intercellular synchronization; for EC20 ITN: 20% change from control in intertransient noise; for EC20 THI: 20% change from control in temporal heterogeneity index; for EC20 Rate: drug concentration producing a 20% change from control (no drug) in Ca2+ oscillation rate; for SALVO toxicity score, rank order of the extent of Ca2+ perturbation: five-parameter SALVO output integrated over 0.1-1000 nM, normalized to control; for Effect on Ca2+ handling (SALVO parameters): spontaneously oscillating Cytiva, concentrations up to 30 µM
Excerpt: Cytiva hSCCMs were derived from monolayer differentiation of an H7 hESC cell line that had been expanded under feeder-free conditions and then subjected to a proprietary differentiation protocol (GE Healthcare, Piscataway, NJ, USA).[13] […] Cells were thawed and seeded into 7-mm^2 chambers created by the adherence of silicon gaskets (CultureWell MultiWell 3 mm in diameter, 1-mm-depth inserts [Life Technologies]) on glass-bottomed culture chambers (In Vitro Scientific, Sunnyvale, CA, USA) that had been precoated with Matrigel (BD Biosciences, Franklin Lakes, NJ, USA), Franklin Lakes, NJ, USA diluted 1:30 (v/v) in Knockout DMEM (Life Technologies, Carlsbad, CA, USA). […] Cells were allowed to adhere to the coverslip for 2 h before the dish was filled with RPMI/B27 (2 mL). Medium was exchanged every 48 h.
Cells were incubated with fluo-4 AM (5 µM) (Life Technologies) for 1 h at 37°C before coverslips were flooded with RPMI/B27 (2 mL). […] Cells were maintained at 37 °C throughout experiments. […] The application of caffeine (5 mM final concentration) was used to trigger sarcoplasmic reticulum (SR) Ca^2+ release and thereby estimate the intra-SR Ca^2+ store load.
Taking our lead from Uhlen’s method of using spectral analysis to investigate the organization of Ca^2+ signals,[14] we developed SALVO to decode the spatiotemporal patterning of Ca^2+ oscillations within individual cells and across multicellular populations. SALVO outputs 30 parameters that describe Ca^2+ signal organization,[15] but for the purposes of this study, we focused on five parameters: oscillation rate (rate, Hz) and four other parameters that quantify the amplitude and temporal patterning of Ca^2+ oscillation: (1) amplitude heterogeneity index (AHI) and (2) temporal heterogeneity index (THI), statistical assessments of signal amplitude and temporal variability within single cells, respectively; (3) intertransient noise (ITN), defined as the Ca^2+ signal variability occurring between Ca^2+ oscillations and that extends the use of signal variability (SV) to measure point-by-point differences in very low-amplitude Ca^2+ signals[6],[10],[12]; and (4) synchronization, an index of the temporal coincidence of Ca^2+ oscillation maxima occurring across cells in the population. The calculation of these parameters is described in Supplementary Figure S1. SALVO is implemented using a Python-based computer program.[15] The detection of signal maxima and minima over a 30-s period in data obtained from 6 to 20 cells in each instance was performed using SALVO’s autodetection algorithms (based on spline detect or threshold detection methods) or by manual assignation of the start, peak, and end of each Ca^2+ spike. SALVO outputs were archived and interrogated using a custom-built SQL-based database system (DB Miner, CHG, NCS, SBJ).
Baseline assessments of Ca^2+ signals in fluo-4–loaded cells prior to the addition of drug (control) were established as described above.
After each addition and following a period of equilibration (approximately 90 s), fluo-4–dependent Ca^2+ signals were acquired for 30 s. Using this protocol, the same population of cells was imaged throughout the entire drug addition sequence.
In all experiments, operators were blinded to the identities of the drugs under test throughout all phases of postexperimental data analysis.
Supplementary Table 2. EC20 values for Ca2+ perturbation.
Drug concentrations (nM) that produced a 20% change from control values (no drug) were calculated for each SALVO parameter from regression analysis of […]
The effective therapeutic plasma concentration of free drug (ETPCunbound, nM) was calculated in Supplementary Table 1.
Calculate percentage effect size (E) for each SALVO parameter, normalized to Ew = E x λ control conditions, at each drug concentration Effect size (E,%) λ
Cumulative Ew for drug concentrations of 0.1, 1, 10, 100 and 1000 nM for The relationship between E and λ is given by […]

hSCCM = system: hSCCM; parameters: method as in PMID 24052561; conditions: cited from earlier work
[7] = free plasma concentration calculated from ETPC and free drug %, Supplementary Table 1

In the case of COc1ccc(CCN2CCC(Nc3nc4ccccc4n3Cc3ccc(F)cc3)CC2)cc1 [Astemizole, astemizole], the Free drug [1] is listed as 2%, the TdP risk category [2] is listed as “category 2” and the ETPC [3] is listed as 8 nM. For the same compound, the “Effect on APD90 (action potential duration)” value (Cytiva hSCCMs [4]) was “increased APD90”, the ETPCunbound ([5]; effective therapeutic plasma concentration of free drug, as listed in Supplementary Table 2) was 8 nM and the ETPCunbound [5, 7] was 0.2 nM. The “EC20 AHI” value (Cytiva hSCCMs [6]) was 100 nM, the “EC20 Synch” value (Cytiva hSCCMs [6]) was 15 nM and the “EC20 ITN” value (Cytiva hSCCMs [6]) was 0.32 µM. For the same compound, the “EC20 THI” value (Cytiva hSCCMs [6]) was 55 nM, the “Predicted proarrhythmic score (PPS)” value (Cytiva hSCCMs [6]; PPS = ETPCunbound/EC20) was less than 1 and the “EC20 Rate” value (Cytiva hSCCMs [6]) was 50 nM. The “SALVO toxicity score, rank order of the extent of Ca2+ perturbation” value (Cytiva hSCCMs [6]) was “astemizole > thioridazine > cisapride > flecainide > valdecoxib > sotalol > nadolol” and the “Effect on Ca2+ handling (SALVO parameters)” value (from here on “Effect on Ca2+ handling”) (Cytiva hSCCMs [6]) was “large effect sizes in multiple parameters”.
For COc1cc(N)c(Cl)cc1C(=O)NC1CCN(CCCOc2ccc(F)cc2)CC1OC (centres unmarked) [Cisapride, cisapride], the Free drug [1] is listed as 2%, the TdP risk category [2] is listed as “category 2” and the ETPC [3] is listed as 129 nM. The “Effect on APD90 (action potential duration)” value (Cytiva hSCCMs [4]) was “increased APD90”, the ETPCunbound [5, 7] was 3 nM and the “EC20 AHI” value (Cytiva hSCCMs [6]) was 40 nM. For the same compound, the “EC20 Synch” value (Cytiva hSCCMs [6]) was 5 nM, the “EC20 ITN” value (Cytiva hSCCMs [6]) was greater than 30 µM and the “EC20 THI” value (Cytiva hSCCMs [6]) was 105 nM. For the same compound, the PPS rank order (Cytiva hSCCMs [6]; PPS = ETPCunbound/EC20) was “thioridazine > cisapride > valdecoxib”, the “EC20 Rate” value (Cytiva hSCCMs [6]) was 445 nM and the “SALVO toxicity score, rank order of the extent of Ca2+ perturbation” value (Cytiva hSCCMs [6]) was “astemizole > thioridazine > cisapride > flecainide > valdecoxib > sotalol > nadolol”. The “Effect on Ca2+ handling” value (Cytiva hSCCMs [6]) was “large effect sizes in multiple parameters”.
In the case of CS(=O)(=O)c1ccc(C2=C(c3ccccc3)C(=O)OC2)cc1 [rofecoxib], the “Hazard identification by impedance measurements” value (hSCCM) is listed as “failed to identify the potential hazard” and the “Effect on Ca2+ handling” value (Cytiva hSCCMs [6]) is listed as “inconsistent bioactivity”.
